Holding throughout (format): cell-based
Holding throughout (details): compounds at 50 nM and 500 nM, 24 hours

Experiment [1] deals with T1, CK1α (Homo sapiens, UniProt P48729+Q96SW2).
T1 construct: effects of the compounds of the present disclosure on the expression of target proteins in cells; endogenous in cells; host or cells: human PBMCs (hPBMCs)
The experiment can be described thus: Western-blot assay, substrate protein degradation in hPBMCs: CK1α.

For experiment [2], the target named is T2, WEE1 (Homo sapiens, UniProt P30291+Q96SW2).
T2 construct: effects of the compounds of the present disclosure on the expression of target proteins in cells; endogenous in cells; host or cells: human PBMCs (hPBMCs)
T2 sequence (P30291 whole entry): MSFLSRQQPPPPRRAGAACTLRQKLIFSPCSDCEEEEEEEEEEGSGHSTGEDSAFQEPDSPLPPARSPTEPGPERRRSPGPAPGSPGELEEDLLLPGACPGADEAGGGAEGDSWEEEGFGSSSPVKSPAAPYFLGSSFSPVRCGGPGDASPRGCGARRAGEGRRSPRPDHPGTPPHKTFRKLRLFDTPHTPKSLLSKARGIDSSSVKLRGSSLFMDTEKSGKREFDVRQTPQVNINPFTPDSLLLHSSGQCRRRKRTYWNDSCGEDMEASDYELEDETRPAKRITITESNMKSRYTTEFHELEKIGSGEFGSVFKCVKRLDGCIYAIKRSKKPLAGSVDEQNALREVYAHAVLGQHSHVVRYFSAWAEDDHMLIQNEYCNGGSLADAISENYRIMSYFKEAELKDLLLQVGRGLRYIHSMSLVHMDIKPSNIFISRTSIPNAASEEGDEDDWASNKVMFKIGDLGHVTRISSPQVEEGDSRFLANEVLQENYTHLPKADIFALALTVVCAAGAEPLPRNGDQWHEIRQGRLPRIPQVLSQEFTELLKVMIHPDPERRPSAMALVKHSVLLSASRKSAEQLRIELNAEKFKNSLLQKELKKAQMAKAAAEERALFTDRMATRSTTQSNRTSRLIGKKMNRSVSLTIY
T2 sequence (Q96SW2 whole entry): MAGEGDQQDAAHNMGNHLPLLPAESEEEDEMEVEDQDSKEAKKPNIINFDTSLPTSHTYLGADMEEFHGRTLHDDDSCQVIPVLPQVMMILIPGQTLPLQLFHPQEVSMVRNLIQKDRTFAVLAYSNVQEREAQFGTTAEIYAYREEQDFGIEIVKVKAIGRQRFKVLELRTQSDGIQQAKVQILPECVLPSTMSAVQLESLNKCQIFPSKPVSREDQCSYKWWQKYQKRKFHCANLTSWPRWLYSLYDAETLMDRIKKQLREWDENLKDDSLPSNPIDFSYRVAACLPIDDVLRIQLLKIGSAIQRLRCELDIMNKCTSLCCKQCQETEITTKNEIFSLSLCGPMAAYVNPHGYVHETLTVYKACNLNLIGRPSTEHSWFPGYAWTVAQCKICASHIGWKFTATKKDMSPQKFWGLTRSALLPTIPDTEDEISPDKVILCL
T2 sequence (Q16531 whole entry partner): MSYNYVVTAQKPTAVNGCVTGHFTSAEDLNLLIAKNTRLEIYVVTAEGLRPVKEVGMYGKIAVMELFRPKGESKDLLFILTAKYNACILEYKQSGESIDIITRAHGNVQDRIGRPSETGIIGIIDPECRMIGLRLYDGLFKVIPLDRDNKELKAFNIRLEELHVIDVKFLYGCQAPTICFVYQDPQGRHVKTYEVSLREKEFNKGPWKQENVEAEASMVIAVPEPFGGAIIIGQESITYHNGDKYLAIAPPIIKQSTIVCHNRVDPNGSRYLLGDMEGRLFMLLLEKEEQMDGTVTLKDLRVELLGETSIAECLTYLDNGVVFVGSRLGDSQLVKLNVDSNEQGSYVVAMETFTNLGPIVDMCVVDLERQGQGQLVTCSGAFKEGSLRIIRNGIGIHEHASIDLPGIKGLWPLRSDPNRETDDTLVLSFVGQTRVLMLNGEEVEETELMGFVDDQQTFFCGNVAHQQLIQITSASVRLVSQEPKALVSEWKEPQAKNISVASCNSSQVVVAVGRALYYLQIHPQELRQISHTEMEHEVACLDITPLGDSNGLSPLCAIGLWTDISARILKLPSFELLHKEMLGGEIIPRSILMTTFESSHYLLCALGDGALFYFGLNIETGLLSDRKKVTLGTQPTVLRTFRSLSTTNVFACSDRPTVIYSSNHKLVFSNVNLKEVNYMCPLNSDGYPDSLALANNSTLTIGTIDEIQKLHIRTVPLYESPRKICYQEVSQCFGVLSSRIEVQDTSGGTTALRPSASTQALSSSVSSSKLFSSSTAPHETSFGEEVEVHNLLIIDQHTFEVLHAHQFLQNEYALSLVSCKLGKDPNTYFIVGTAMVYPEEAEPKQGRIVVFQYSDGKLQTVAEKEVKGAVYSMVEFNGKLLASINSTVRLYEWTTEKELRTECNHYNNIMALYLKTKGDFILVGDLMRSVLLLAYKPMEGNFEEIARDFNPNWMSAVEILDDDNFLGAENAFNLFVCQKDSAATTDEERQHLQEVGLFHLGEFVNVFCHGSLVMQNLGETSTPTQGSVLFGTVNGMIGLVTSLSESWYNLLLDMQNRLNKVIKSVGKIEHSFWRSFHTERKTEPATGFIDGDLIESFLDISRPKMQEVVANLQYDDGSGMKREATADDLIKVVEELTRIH
The experiment can be described thus: Western-blot assay, substrate protein degradation in hPBMCs: WEE1.

Experiment [3] addresses T3, IKZF2 (Homo sapiens, UniProt Q96SW2+Q9UKS7).
T3 construct: effects of the compounds of the present disclosure on the expression of target proteins in cells; endogenous in cells; host or cells: human PBMCs (hPBMCs)
The experiment can be described thus: Western-blot assay, substrate protein degradation in hPBMCs: IKZF2.

In experiment [4] the target is T4, GSPT1 (Homo sapiens, UniProt P15170+Q96SW2).
T4 construct: effects of the compounds of the present disclosure on the expression of target proteins in cells; endogenous in cells; host or cells: human PBMCs (hPBMCs)
T4 sequence (P15170 whole entry): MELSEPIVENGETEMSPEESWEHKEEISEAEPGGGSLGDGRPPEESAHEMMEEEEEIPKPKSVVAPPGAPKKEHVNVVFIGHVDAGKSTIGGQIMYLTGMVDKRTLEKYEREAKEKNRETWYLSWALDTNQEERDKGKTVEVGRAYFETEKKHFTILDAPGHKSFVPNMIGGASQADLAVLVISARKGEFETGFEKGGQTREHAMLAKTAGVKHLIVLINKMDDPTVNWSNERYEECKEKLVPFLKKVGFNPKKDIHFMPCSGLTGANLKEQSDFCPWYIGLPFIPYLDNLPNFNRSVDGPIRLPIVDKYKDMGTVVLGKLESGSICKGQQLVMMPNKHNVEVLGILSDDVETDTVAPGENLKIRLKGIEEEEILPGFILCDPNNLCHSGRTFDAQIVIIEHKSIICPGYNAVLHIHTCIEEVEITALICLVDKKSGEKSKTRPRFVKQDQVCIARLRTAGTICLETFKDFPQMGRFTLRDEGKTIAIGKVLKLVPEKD
T4 sequence (Q96SW2 whole entry): as the sequence (Q96SW2 whole entry) above
T4 sequence (Q16531 whole entry partner): as the sequence (Q16531 whole entry partner) above
The experiment can be described thus: Western-blot assay, substrate protein degradation in hPBMCs: GSPT1.

The target in experiment [5] is T5, IKZF3 (Homo sapiens, UniProt Q96SW2+Q9UKT9).
T5 construct: effects of the compounds of the present disclosure on the expression of target proteins in cells; endogenous in cells; host or cells: human PBMCs (hPBMCs)
T5 sequence (Q9UKT9 whole entry): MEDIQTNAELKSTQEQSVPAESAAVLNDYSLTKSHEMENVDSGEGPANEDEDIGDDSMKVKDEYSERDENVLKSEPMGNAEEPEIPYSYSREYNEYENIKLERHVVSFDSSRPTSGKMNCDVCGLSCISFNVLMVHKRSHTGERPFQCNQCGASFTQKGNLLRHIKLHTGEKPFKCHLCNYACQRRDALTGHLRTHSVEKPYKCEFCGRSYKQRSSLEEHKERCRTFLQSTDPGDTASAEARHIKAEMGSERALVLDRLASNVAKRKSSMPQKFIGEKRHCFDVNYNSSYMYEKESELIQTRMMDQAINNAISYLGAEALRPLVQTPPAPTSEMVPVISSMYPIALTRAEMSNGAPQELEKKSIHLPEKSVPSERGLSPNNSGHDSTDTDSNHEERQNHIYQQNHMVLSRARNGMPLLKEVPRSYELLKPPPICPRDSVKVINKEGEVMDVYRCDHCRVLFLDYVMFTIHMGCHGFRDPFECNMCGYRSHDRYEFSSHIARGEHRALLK
T5 sequence (Q96SW2 whole entry): as the sequence (Q96SW2 whole entry) above
T5 sequence (Q16531 whole entry partner): as the sequence (Q16531 whole entry partner) above
The experiment can be described thus: Western-blot assay, substrate protein degradation in hPBMCs: IKZF3.

Experiment [6] has as its target T6, IKZF1 (Homo sapiens, UniProt Q13422+Q96SW2).
T6 construct: effects of the compounds of the present disclosure on the expression of target proteins in cells; endogenous in cells; host or cells: human PBMCs (hPBMCs)
Nature of the experiment: Western-blot assay, substrate protein degradation in hPBMCs: IKZF1.

T6 sequence (Q13422 whole entry): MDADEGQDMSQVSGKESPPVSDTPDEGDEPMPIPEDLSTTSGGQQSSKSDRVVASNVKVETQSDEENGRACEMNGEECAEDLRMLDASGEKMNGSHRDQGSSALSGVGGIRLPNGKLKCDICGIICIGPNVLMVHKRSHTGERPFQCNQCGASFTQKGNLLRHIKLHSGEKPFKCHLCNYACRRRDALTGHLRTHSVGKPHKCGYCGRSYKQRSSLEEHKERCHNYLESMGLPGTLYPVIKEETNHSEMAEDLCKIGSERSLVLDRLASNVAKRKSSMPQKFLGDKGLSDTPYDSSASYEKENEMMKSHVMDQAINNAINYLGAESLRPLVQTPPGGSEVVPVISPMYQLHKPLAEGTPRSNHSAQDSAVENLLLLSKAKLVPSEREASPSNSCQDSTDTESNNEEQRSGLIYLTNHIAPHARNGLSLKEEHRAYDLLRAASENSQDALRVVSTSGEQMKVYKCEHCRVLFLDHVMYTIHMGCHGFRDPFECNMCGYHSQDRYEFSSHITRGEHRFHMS
T6 sequence (Q96SW2 whole entry): as the sequence (Q96SW2 whole entry) above
T6 sequence (Q16531 whole entry partner): as the sequence (Q16531 whole entry partner) above
T1 sequence (P48729 whole entry): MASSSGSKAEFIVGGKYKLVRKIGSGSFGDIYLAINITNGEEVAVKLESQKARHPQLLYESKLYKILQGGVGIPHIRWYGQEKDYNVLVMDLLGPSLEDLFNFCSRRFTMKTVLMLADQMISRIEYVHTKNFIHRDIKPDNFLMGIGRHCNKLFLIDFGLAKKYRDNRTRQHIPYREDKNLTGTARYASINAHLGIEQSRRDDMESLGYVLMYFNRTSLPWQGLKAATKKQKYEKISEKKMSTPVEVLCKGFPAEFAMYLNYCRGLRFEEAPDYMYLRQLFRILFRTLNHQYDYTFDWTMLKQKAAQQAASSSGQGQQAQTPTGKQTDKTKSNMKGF
T1 sequence (Q96SW2 whole entry): as the sequence (Q96SW2 whole entry) above
T1 sequence (Q16531 whole entry partner): as the sequence (Q16531 whole entry partner) above

Consider `O=C1CCN(N2C(=O)c3ccc(CN4CCN(c5ccc(F)cn5)CC4)cc3C2=O)C(=O)N1` [GT-06965, 2-(2,4-dioxotetrahydropyrimidin-1(2H)-yl)-5-((4-(5-fluoropyridin-2-yl)piperazin-1-yl)methyl)isoindoline-1,3-dione], for which, in experiment [1], the “CK1α substrate protein remaining %” value was “B ("B" is defined as 80%< substrate protein remaining %≤ 100%)”. Moreover, in experiment [2], the “WEE1 substrate protein remaining %” value is given as “B ("B" is defined as 80%< substrate protein remaining %≤ 100%)”. Further, in experiment [3], the “IKZF2 substrate protein remaining %” value is “A ("A" is defined as 0% ≤ substrate protein remaining % ≤ 80%)”. In addition, the “GSPT1 substrate protein remaining %” value in experiment [4] was “B ("B" is defined as 80%< substrate protein remaining %≤ 100%)”. The “IKZF3 substrate protein remaining %” value in experiment [5] is “B ("B" is defined as 80%< substrate protein remaining %≤ 100%)”. Besides, the “IKZF1 substrate protein remaining %” value in experiment [6] is listed as “B ("B" is defined as 80%< substrate protein remaining %≤ 100%)”.

Take `O=C1CCN(N2C(=O)c3ccc(CN4CCN(c5ccc(C(F)(F)F)cn5)CC4)cc3C2=O)C(=O)N1` [GT-06968, 2-(2,4-dioxotetrahydropyrimidin-1(2H)-yl)-5-((4-(5-(trifluoromethyl)pyridin-2-yl)piperazin-1-yl)methyl)isoindoline-1,3-dione]: in experiment [1], the “CK1α substrate protein remaining %” value is recorded as “B ("B" is defined as 80%< substrate protein remaining %≤ 100%)”. In addition, in experiment [2], the “WEE1 substrate protein remaining %” value was “A ("A" is defined as 0% ≤ substrate protein remaining % ≤ 80%)”. Moreover, the “IKZF2 substrate protein remaining %” value in experiment [3] is “A ("A" is defined as 0% ≤ substrate protein remaining % ≤ 80%)”. For the same compound, the “GSPT1 substrate protein remaining %” value in experiment [4] is listed as “B ("B" is defined as 80%< substrate protein remaining %≤ 100%)”. Moreover, the “IKZF3 substrate protein remaining %” value in experiment [5] is reported as “B ("B" is defined as 80%< substrate protein remaining %≤ 100%)”. Also, the “IKZF1 substrate protein remaining %” value in experiment [6] was “B ("B" is defined as 80%< substrate protein remaining %≤ 100%)”.

As to `O=C1CCN(N2C(=O)c3ccc(CN4CCN(c5ncc(Cl)cc5Cl)CC4)cc3C2=O)C(=O)N1` [GT-06969, 5-((4-(3,5-dichloropyridin-2-yl)piperazin-1-yl)methyl)-2-(2,4-dioxotetrahydropyrimidin-1(2H)-yl)isoindoline-1,3-dione], in experiment [1], the “CK1α substrate protein remaining %” value is reported as “B ("B" is defined as 80%< substrate protein remaining %≤ 100%)”. The “WEE1 substrate protein remaining %” value in experiment [2] was “A ("A" is defined as 0% ≤ substrate protein remaining % ≤ 80%)”. The “IKZF2 substrate protein remaining %” value in experiment [3] is on record as “A ("A" is defined as 0% ≤ substrate protein remaining % ≤ 80%)”. For the same compound, the “GSPT1 substrate protein remaining %” value in experiment [4] is “B ("B" is defined as 80%< substrate protein remaining %≤ 100%)”. For the same compound, the “IKZF3 substrate protein remaining %” value in experiment [5] is reported as “B ("B" is defined as 80%< substrate protein remaining %≤ 100%)”. The “IKZF1 substrate protein remaining %” value in experiment [6] was “B ("B" is defined as 80%< substrate protein remaining %≤ 100%)”.

As to `O=C1CCN(N2C(=O)c3ccc(CN4CCN(c5nccc(I)c5F)CC4)cc3C2=O)C(=O)N1` [GT-06970, 2-(2,4-dioxotetrahydropyrimidin-1(2H)-yl)-5-((4-(3-fluoro-4-iodopyridin-2-yl)piperazin-1-yl)methyl)isoindoline-1,3-dione], in experiment [1], the “CK1α substrate protein remaining %” value is reported as “B ("B" is defined as 80%< substrate protein remaining %≤ 100%)”. Also, in experiment [2], the “WEE1 substrate protein remaining %” value was “A ("A" is defined as 0% ≤ substrate protein remaining % ≤ 80%)”. Also, the “IKZF2 substrate protein remaining %” value in experiment [3] is on record as “A ("A" is defined as 0% ≤ substrate protein remaining % ≤ 80%)”. Besides, in experiment [4], the “GSPT1 substrate protein remaining %” value is reported as “B ("B" is defined as 80%< substrate protein remaining %≤ 100%)”. Moreover, the “IKZF3 substrate protein remaining %” value in experiment [5] was “B ("B" is defined as 80%< substrate protein remaining %≤ 100%)”. In experiment [6], the “IKZF1 substrate protein remaining %” value is on record as “B ("B" is defined as 80%< substrate protein remaining %≤ 100%)”.

Turning to `O=C1CCN(N2C(=O)c3ccc(CN4CCN(c5cccnc5)CC4)cc3C2=O)C(=O)N1` [GT-06971, 2-(2,4-dioxotetrahydropyrimidin-1(2H)-yl)-5-((4-(pyridin-3-yl)piperazin-1-yl)methyl)isoindoline-1,3-dione], the “CK1α substrate protein remaining %” value in experiment [1] is “B ("B" is defined as 80%< substrate protein remaining %≤ 100%)”. Also, the “WEE1 substrate protein remaining %” value in experiment [2] is listed as “A ("A" is defined as 0% ≤ substrate protein remaining % ≤ 80%)”. The “IKZF2 substrate protein remaining %” value in experiment [3] is given as “A ("A" is defined as 0% ≤ substrate protein remaining % ≤ 80%)”. Also, the “GSPT1 substrate protein remaining %” value in experiment [4] was “B ("B" is defined as 80%< substrate protein remaining %≤ 100%)”. Besides, in experiment [5], the “IKZF3 substrate protein remaining %” value is “B ("B" is defined as 80%< substrate protein remaining %≤ 100%)”. In experiment [6], the “IKZF1 substrate protein remaining %” value is “B ("B" is defined as 80%< substrate protein remaining %≤ 100%)”.

Turning to `O=C1CCN(N2C(=O)c3ccc(CN4CCN(c5cncc(Cl)c5Cl)CC4)cc3C2=O)C(=O)N1` [GT-06972, 5-((4-(4,5-dichloropyridin-3-yl)piperazin-1-yl)methyl)-2-(2,4-dioxotetrahydropyrimidin-1(2H)-yl)isoindoline-1,3-dione], the “CK1α substrate protein remaining %” value in experiment [1] is “B ("B" is defined as 80%< substrate protein remaining %≤ 100%)”. For the same compound, the “WEE1 substrate protein remaining %” value in experiment [2] is listed as “A ("A" is defined as 0% ≤ substrate protein remaining % ≤ 80%)”. In experiment [3], the “IKZF2 substrate protein remaining %” value is on record as “A ("A" is defined as 0% ≤ substrate protein remaining % ≤ 80%)”. Further, the “GSPT1 substrate protein remaining %” value in experiment [4] is “B ("B" is defined as 80%< substrate protein remaining %≤ 100%)”. Further, the “IKZF3 substrate protein remaining %” value in experiment [5] is recorded as “B ("B" is defined as 80%< substrate protein remaining %≤ 100%)”. For the same compound, in experiment [6], the “IKZF1 substrate protein remaining %” value was “B ("B" is defined as 80%< substrate protein remaining %≤ 100%)”.

Consider `O=C1CCN(N2C(=O)c3ccc(CN4CCN(c5c(Cl)ccnc5Cl)CC4)cc3C2=O)C(=O)N1` [GT-06973, 5-((4-(2,4-dichloropyridin-3-yl)piperazin-1-yl)methyl)-2-(2,4-dioxotetrahydropyrimidin-1(2H)-yl)isoindoline-1,3-dione], for which the “CK1α substrate protein remaining %” value in experiment [1] was “B ("B" is defined as 80%< substrate protein remaining %≤ 100%)”. Besides, the “WEE1 substrate protein remaining %” value in experiment [2] is on record as “A ("A" is defined as 0% ≤ substrate protein remaining % ≤ 80%)”. For the same compound, the “IKZF2 substrate protein remaining %” value in experiment [3] is listed as “B ("B" is defined as 80%< substrate protein remaining %≤ 100%)”. Besides, in experiment [4], the “GSPT1 substrate protein remaining %” value is “B ("B" is defined as 80%< substrate protein remaining %≤ 100%)”. Also, the “IKZF3 substrate protein remaining %” value in experiment [5] is “A ("A" is defined as 0% ≤ substrate protein remaining % ≤ 80%)”. Moreover, the “IKZF1 substrate protein remaining %” value in experiment [6] was “A ("A" is defined as 0% ≤ substrate protein remaining % ≤ 80%)”.

Take `O=C1CCN(N2Cc3cc(CN4CCN(c5c(Cl)ccnc5Cl)CC4)ccc3C2=O)C(=O)N1` [GT-06974, 1-(5-((4-(2,4-dichloropyridin-3-yl)piperazin-1-yl)methyl)-1-oxoisoindolin-2-yl)dihydropyrimidine-2,4(1H,3H)-dione]: the “CK1α substrate protein remaining %” value in experiment [1] is listed as “B ("B" is defined as 80%< substrate protein remaining %≤ 100%)”. In addition, the “WEE1 substrate protein remaining %” value in experiment [2] is “A ("A" is defined as 0% ≤ substrate protein remaining % ≤ 80%)”. Besides, in experiment [3], the “IKZF2 substrate protein remaining %” value is listed as “B ("B" is defined as 80%< substrate protein remaining %≤ 100%)”. Also, the “GSPT1 substrate protein remaining %” value in experiment [4] is reported as “B ("B" is defined as 80%< substrate protein remaining %≤ 100%)”. Besides, in experiment [5], the “IKZF3 substrate protein remaining %” value was “A ("A" is defined as 0% ≤ substrate protein remaining % ≤ 80%)”. The “IKZF1 substrate protein remaining %” value in experiment [6] is given as “A ("A" is defined as 0% ≤ substrate protein remaining % ≤ 80%)”.

Turning to `O=C1CCN(N2C(=O)c3ccc(CN4CCN(c5ccc(Cl)nc5)CC4)cc3C2=O)C(=O)N1` [GT-07027, 5-((4-(6-chloropyridin-3-yl)piperazin-1-yl)methyl)-2-(2,4-dioxotetrahydropyrimidin-1(2H)-yl)isoindoline-1,3-dione], in experiment [1], the “CK1α substrate protein remaining %” value was “B ("B" is defined as 80%< substrate protein remaining %≤ 100%)”. In addition, the “WEE1 substrate protein remaining %” value in experiment [2] is reported as “A ("A" is defined as 0% ≤ substrate protein remaining % ≤ 80%)”. The “IKZF2 substrate protein remaining %” value in experiment [3] is “B ("B" is defined as 80%< substrate protein remaining %≤ 100%)”. Also, in experiment [4], the “GSPT1 substrate protein remaining %” value is “A ("A" is defined as 0% ≤ substrate protein remaining % ≤ 80%)”. Further, the “IKZF3 substrate protein remaining %” value in experiment [5] is recorded as “B ("B" is defined as 80%< substrate protein remaining %≤ 100%)”. Also, the “IKZF1 substrate protein remaining %” value in experiment [6] was “B ("B" is defined as 80%< substrate protein remaining %≤ 100%)”.

On to `O=C1CCN(N2Cc3cc(CN4CCN(c5ncnc(Cl)c5Cl)CC4)ccc3C2=O)C(=O)N1` [GT-07028, 1-(5-((4-(5,6-dichloropyrimidin-4-yl)piperazin-1-yl)methyl)-1-oxoisoindolin-2-yl)dihydropyrimidine-2,4(1H,3H)-dione], for which the “CK1α substrate protein remaining %” value in experiment [1] was “B ("B" is defined as 80%< substrate protein remaining %≤ 100%)”. In addition, in experiment [2], the “WEE1 substrate protein remaining %” value is given as “A ("A" is defined as 0% ≤ substrate protein remaining % ≤ 80%)”. Also, the “IKZF2 substrate protein remaining %” value in experiment [3] was “B ("B" is defined as 80%< substrate protein remaining %≤ 100%)”. Further, the “GSPT1 substrate protein remaining %” value in experiment [4] was “A ("A" is defined as 0% ≤ substrate protein remaining % ≤ 80%)”. Further, the “IKZF3 substrate protein remaining %” value in experiment [5] is “B ("B" is defined as 80%< substrate protein remaining %≤ 100%)”. For the same compound, the “IKZF1 substrate protein remaining %” value in experiment [6] is recorded as “B ("B" is defined as 80%< substrate protein remaining %≤ 100%)”.

These data come from patent EP4722207A1, “OXOISOINDOLINYL-SUBSTITUTED TETRAHYDROPYRIMIDINEDIONE DERIVATIVE AND USE THEREOF” (Gluetacs Therapeutics (Shanghai) Co., Ltd., priority 2023, dated 2024).
